A value given as a limit tells only on which side of the number the result lay.

T1 sequence (Q13315 whole entry): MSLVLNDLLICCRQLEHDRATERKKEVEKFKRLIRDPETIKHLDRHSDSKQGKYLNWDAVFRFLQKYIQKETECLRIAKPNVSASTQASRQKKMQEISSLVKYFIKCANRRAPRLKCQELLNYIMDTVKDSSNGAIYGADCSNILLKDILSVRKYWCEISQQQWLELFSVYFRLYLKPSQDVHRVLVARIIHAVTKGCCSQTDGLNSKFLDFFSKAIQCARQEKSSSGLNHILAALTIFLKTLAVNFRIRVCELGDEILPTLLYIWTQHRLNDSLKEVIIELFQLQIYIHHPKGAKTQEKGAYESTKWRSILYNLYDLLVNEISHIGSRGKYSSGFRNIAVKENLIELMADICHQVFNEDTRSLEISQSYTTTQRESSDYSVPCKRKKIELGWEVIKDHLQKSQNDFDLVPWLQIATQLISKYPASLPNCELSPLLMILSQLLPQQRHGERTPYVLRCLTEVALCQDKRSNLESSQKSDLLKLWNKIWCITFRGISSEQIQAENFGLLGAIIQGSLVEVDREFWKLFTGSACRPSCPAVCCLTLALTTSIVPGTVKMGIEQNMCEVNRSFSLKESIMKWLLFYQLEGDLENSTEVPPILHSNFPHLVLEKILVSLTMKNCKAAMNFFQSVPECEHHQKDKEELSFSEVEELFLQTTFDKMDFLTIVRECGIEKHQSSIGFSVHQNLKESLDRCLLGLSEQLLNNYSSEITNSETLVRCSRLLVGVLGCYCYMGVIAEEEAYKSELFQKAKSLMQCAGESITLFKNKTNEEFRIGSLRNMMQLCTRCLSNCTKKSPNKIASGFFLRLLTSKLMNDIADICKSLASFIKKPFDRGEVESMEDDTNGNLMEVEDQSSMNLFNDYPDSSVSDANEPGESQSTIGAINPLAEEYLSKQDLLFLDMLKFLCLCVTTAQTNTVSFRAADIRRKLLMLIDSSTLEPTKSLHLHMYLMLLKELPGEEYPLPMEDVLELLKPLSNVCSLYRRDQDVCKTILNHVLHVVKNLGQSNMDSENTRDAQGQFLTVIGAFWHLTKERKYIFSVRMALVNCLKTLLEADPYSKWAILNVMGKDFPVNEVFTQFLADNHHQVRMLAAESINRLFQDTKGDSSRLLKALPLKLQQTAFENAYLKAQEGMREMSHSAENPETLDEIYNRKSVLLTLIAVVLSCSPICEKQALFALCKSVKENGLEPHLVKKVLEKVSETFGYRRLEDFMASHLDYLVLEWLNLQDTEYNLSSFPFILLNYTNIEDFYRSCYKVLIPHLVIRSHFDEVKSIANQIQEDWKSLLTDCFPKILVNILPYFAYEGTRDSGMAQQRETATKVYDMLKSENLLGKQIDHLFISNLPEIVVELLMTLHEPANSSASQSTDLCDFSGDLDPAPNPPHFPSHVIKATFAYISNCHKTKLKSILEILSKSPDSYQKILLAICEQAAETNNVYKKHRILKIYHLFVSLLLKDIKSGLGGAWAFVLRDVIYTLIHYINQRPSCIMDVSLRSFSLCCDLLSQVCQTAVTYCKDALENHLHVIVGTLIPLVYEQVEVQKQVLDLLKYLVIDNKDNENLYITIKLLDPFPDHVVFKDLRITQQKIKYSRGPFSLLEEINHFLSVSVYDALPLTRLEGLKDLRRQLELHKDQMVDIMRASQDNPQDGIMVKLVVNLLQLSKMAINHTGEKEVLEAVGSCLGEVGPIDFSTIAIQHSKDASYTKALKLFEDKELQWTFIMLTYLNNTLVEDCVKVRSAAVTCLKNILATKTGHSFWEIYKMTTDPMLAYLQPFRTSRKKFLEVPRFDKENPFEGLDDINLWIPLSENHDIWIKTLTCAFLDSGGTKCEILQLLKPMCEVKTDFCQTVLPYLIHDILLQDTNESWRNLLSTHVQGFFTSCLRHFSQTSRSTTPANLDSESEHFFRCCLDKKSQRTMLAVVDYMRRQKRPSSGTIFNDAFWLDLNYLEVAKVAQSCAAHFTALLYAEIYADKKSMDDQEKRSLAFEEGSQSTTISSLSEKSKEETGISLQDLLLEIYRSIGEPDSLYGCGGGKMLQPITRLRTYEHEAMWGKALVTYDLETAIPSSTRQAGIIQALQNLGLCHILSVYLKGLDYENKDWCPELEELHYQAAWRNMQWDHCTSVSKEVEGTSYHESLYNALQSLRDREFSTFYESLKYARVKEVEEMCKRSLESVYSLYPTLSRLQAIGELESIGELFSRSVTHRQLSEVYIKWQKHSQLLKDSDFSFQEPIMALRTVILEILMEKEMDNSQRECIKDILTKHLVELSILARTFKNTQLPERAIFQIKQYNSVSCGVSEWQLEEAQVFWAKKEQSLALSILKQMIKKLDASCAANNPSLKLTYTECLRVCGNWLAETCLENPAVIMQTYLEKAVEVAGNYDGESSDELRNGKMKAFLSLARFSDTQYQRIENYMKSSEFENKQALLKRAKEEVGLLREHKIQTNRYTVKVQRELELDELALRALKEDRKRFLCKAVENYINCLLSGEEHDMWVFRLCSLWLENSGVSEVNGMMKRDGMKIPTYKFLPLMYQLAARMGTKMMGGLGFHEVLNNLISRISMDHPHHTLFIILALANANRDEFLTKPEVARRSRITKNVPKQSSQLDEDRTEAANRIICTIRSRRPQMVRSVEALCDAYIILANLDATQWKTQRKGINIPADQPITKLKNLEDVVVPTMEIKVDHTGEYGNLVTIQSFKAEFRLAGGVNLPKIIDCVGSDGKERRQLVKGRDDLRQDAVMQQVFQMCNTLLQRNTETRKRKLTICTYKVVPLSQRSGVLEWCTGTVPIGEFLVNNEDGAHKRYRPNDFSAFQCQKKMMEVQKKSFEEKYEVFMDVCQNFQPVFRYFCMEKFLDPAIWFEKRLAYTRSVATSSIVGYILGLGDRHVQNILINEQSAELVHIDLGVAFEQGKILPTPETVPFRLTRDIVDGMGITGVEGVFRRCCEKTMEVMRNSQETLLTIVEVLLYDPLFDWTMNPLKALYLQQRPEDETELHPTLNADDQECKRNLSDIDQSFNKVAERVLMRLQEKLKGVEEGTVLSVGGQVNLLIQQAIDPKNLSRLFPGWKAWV

The test addresses T1, ATM (Homo sapiens, UniProt Q13315).
T1 construct: detecting phosphorylation of Chk2 in a human non-small cell lung cancer cell line NCI-H460 (ATCC company); host or cells: NCI-H460 human non-small cell lung cancer cells
Nature of the test: ATM inhibition test (phosphorylation of Chk2 generated by ionizing radiation, AlphaScreen SureFire). The test is classed as cell-based. The note with it: phosphorylated Chk2 in NCI-H460 cells, ionizing radiation 8Gy, 1 hour after test compound treatment; read-out: ATM inhibitory activity. A digest of the protocol: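 In NCI-H460 cells, radiation-triggered Chk2 phosphorylation (8Gy, 1 h) is detected by AlphaScreen SureFire following 1 h compound exposure.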
`O=c1cc(N2CCOCC2)cc(-c2cccc3c2Oc2ccc(NC4CCN(c5ccncc5)CC4)cc2C3)[nH]1` [Example 2-2-22, 4-Morpholino-6-(7-((1-(pyridin-4-yl)piperidin-4-yl)amino)-9H-xanthen-4-yl) pyridin-2(1H)-one]: the IC50 is < 100 nM.

In the case of `O=c1cc(N2CCOCC2)cc(-c2cccc3c2Oc2ccc(Nc4cccnc4)cc2C3)[nH]1` [Example 2-61, 4-Morpholino-6-(7-(pyridin-3-ylamino)-9H-xanthen-4-yl)pyridin-2(1H)-one], the IC50 lay within 500 to 2000 nM.

As to `Cc1cc(CNc2ccc3c(c2)Cc2ccnc(-c4cc(N5CCOCC5)cc(=O)[nH]4)c2O3)ccn1` [Example 2-42-3, 6-(7-(((2-Methylpyridin-4-yl)methyl)amino)-5H-chromeno[2,3-c]pyridin-1-yl)-4-morpholinopyridin-2(1H)-one], the IC50 was 100 to 500 nM.

On to `CC(Nc1ccc2c(c1)Cc1cccc(-c3cc(N4CCOCC4)cc(=O)[nH]3)c1O2)c1cc(C#N)ncn1` (centres unmarked) [Example 2-14-60, 6-(1-((5-(4-Morpholino-6-oxo-1,6-dihydropyridin-2-yl)-9H-xanthen-2-yl)amino)ethyl)pyrimidine-4-carbonitrile], for which the IC50 lay within 100 to 500 nM.

Turning to `[N-]=[N+]=NCC(CN1CCOCC1)Nc1ccc2c(c1)Sc1cccc(-c3cc(N4CCOCC4)cc(=O)[nH]3)c1S2` (centres unmarked) [Example 9-1, 6-(7-((1-azide-3-morpholinopropan-2-yl)amino)thianthren-1-yl)-4-morpholinopyridin-2(1H)-one], the IC50 is 100 to 500 nM.

For `O=c1cc(N2CCOCC2)cc(-c2cccc3c2Oc2ccc(NC4CCN(Cc5ccc(C(F)(F)F)nc5)CC4)cc2C3)[nH]1` [Example 2-28-15, 4-Morpholino-6-(7-((1-((6-(trifluoromethyl)pyridin-3-yl)methyl)piperidin-4-yl)amino)-9H-xanthen-4-yl) pyridin-2(1H)-one], the IC50 was in the range of 500 to 2000 nM.

Turning to `CCOC(=O)CNc1ccc2c(c1)Sc1cccc(-c3cc(N4CCOCC4)cc(=O)[nH]3)c1S2` [Example 1-12-49, Ethyl 2-((6-(4-morpholino-6-oxo-1,6-dihydropyridin-2-yl)thianthren-2-yl)amino) acetate], the IC50 was < 100 nM.

For `COc1cncc(CN2CCC(Nc3ccc4c(c3)Sc3cccc(-c5cc(N6CCOCC6)cc(=O)[nH]5)c3S4)CC2)c1` [Example 1-24-16, 6-(7-((1-((5-Methoxypyridin-3-yl)methyl)piperidin-4-yl)amino)thianthren-1-yl)-4-morpholinopyridin-2(1H)-one], the IC50 is 100 to 500 nM.

For `CCCC(Nc1ccc2c(c1)Cc1cccc(-c3cc(N4CCOCC4)cc(=O)[nH]3)c1O2)c1cncc(OC)c1` (centres unmarked) [Example 2-14-17, 6-(7-((1-(5-Methoxypyridin-3-yl)butyl)amino)-9H-xanthen-4-yl)-4-morpholino pyridin-2(1H)-one], the IC50 was 100 to 500 nM.

For the compound `O=c1cc(N2CCOCC2)cc(-c2cccc3c2Sc2ccc(NCCN4CCCOCC4)cc2S3)[nH]1` [Example 1-10-6, 6-(7-((2-(1,4-Oxazepan-4-yl)ethyl)amino)thianthren-1-yl)-4-morpholinopyridin-2(1H)-one], the IC50 lay in the range of 100 to 500 nM.

In the case of `Cn1cc(-c2cncc(CNc3ccc4c(c3)Sc3cccc(-c5cc(N6CCOCC6)cc(=O)[nH]5)c3O4)c2)cn1` [Example 4-4-11, 6-(8-(((5-(1-Methyl-1H-pyrazol-4-yl)pyridin-3-yl)methyl)amino)phenoxathiin-4-yl)-4-morpholino pyridin-2 (1H)-one], the IC50 fell in the range of 100 to 500 nM.

In the case of `O=C(OCc1ccccc1)N1C[C@@H](N2CCOCC2)[C@H](Nc2ccc3c(c2)Sc2cccc(-c4cc(N5CCOCC5)cc(=O)[nH]4)c2S3)C1` (racemic) [Example 11-1, Benzyl 3-morpholino-4-((6-(4-morpholino-6-oxo-1,6-dihydropyridin-2-yl)thianthren-2-yl)amino)pyrrolidine-1-carboxylate], the IC50 is 100 to 500 nM.

Regarding `CC(Nc1ccc2c(c1)Cc1ccnc(-c3cc(N4CCOCC4)cc(=O)[nH]3)c1O2)c1cccc(F)n1` (centres unmarked) [Example 2-41-13, 6-(7-((1-(6-Fluoropyridin-2-yl)ethyl)amino)-5H-chromeno[2,3-c]pyridin-1-yl]-4-morpholino pyridin-2(1H)-one], the IC50 was in the range of 100 to 500 nM.

For `Cc1cc(C)nc(CNc2ccc3c(c2)Cc2cccc(-c4cc(N5CCOCC5)cc(=O)[nH]4)c2O3)c1` [Example 2-14-15, 6-(7-(((4,6-Dimethylpyridin-2-yl)methyl)amino)-9H-xanthen-4-yl)-4-morpholino pyridin-2 (1H)-one], the IC50 was 100 to 500 nM.

`CC(CN1CCO[C@@H](C)C1)Nc1ccc2c(c1)Sc1cccc(-c3cc(N4CCOCC4)cc(=O)[nH]3)c1S2` (stereo partly drawn) [Example 1-43-8, 6-(7-((4-((S)-2-Methylmorpholino)propan-2-yl)amino)thianthren-1-yl)-4-morpholino pyridin-2(1H)-one]: the IC50 lay within 500 to 2000 nM.

As to `COCc1cncc(CNc2ccc3c(c2)Cc2cccc(-c4cc(N5CCOCC5)cc(=O)[nH]4)c2O3)c1` [Example 2-2-33, 6-(7-(((5-(Methoxymethyl)pyridin-3-yl)methyl)amino)-9H-xanthen-4-yl)-4-morpholino pyridin-2(1H)-one], the IC50 is 100 to 500 nM.

For `CC(Nc1ccc2c(c1)Cc1cccc(-c3cc(N4CCOCC4)cc(=O)[nH]3)c1O2)c1ccncn1` (centres unmarked) [Example 2-14-50, 4-Morpholino-6-(7-((1-(pyrimidin-4-yl)ethyl)amino)-9H-xanthen-4-yl) pyridin-2(1H)-one], the IC50 was 500 to 2000 nM.

In the case of `CC(Nc1ccc2c(c1)Cc1cccc(-c3cc(N4CCOCC4)cc(=O)[nH]3)c1O2)c1cncc(F)c1` (centres unmarked) [Example 2-14-29, 6-(7-((1-(5-Fluoropyridin-3-yl)ethyl)amino)-9H-xanthan-4-yl)-4-morpholino pyridin-2(1H)-one], the IC50 was in the range of 100 to 500 nM.

`Cc1cnc(C(CCN2CCN(C)CC2)Nc2ccc3c(c2)Sc2cccc(-c4cc(N5CCOCC5)cc(=O)[nH]4)c2S3)cn1` (single isomer, unassigned) [Example 10-3-2, 6-(7-((3-(4-Methylpiperazin-1-yl)-1-(5-methylpyrazin-2-yl)propyl)amino)thianthren-1-yl)-4-rnorpholino pyridin-2 (1H)-one]: the IC50 was < 100 nM.

Consider `O=c1cc(N2CCOCC2)cc(-c2cccc3c2Sc2ccc(NCc4ccc(Cl)nc4)cc2S3)[nH]1` [Example 1-44-2, 6-(7-(((6-Chloropyridin-3-yl)methyl)amino)thianthren-1-yl)-4-morpholino pyridin-2(1H)-one], for which the IC50 was < 100 nM.

Turning to `Cc1cccc(CNc2ccc3c(c2)Cc2cccc(-c4nc(N5CCOCC5)cc(=O)[nH]4)c2O3)n1` [Example 2-52-1, 2-(7-(((6-Methylpyridin-2-yl)methyl)amino)-9H-xanthen-4-yl)-6-morpholino pyrimidine-4(3H)-one], the IC50 was 100 to 500 nM.

With `Cc1cnc(C(CC(C)(C)O)Nc2ccc3c(c2)Sc2cccc(-c4cc(N5CCOCC5)cc(=O)[nH]4)c2S3)cn1` (centres unmarked) [Example 1-12-117, 6-(7-((3-Hydroxy-3-methyl-1-(5-methylpyrazin-2-yl)butyl)amino)thianthren-1-yl)-4-morpholino pyridin-2(1H)-one], the IC50 lay in the range of 100 to 500 nM.

Consider `CN(C)Cc1cc(CNc2ccc3c(c2)Cc2cccc(-c4cc(N5CCOCC5)cc(=O)[nH]4)c2O3)ccn1` [Example 2-21-8, 6-(7-(((2-((Dimethylamino)methyl)pyridin-4-yl)methyl)amino)-9H-xanthen-4-yl)-4-morpholino pyridin-2(1H)-one], for which the IC50 was in the range of 500 to 2000 nM.

Source of the values: patent US9586951B2 (FUJIFILM Corporation, priority 2013, dated 2017).
